This note sets out measurements from patent US20110112463A1, “COMPOSITIONS AND METHODS FOR TREATING A NEURONAL INJURY OR NEURONAL DISORDERS” (priority 2009, published 2011).

Entries after “also recorded” stand apart in the source; their conditions may differ.

In this assay the test system is NMDA receptors. In words: NMDA receptor blockade with MK-801 before intermittent photostimulation of ChR2 animals, diaphragmatic EMG. It counts as in vivo, Sprague Dawley rats. The text has this:
Four days after C2 hemisection and/or virus injection, the animals were anesthetized as above and prepared for light treatment and physiological recordings. In a room where all light was eliminated except for that needed to accomplish the surgical procedures, approximately an eight cm incision was made at the base of the ribcage to expose the abdominal surface of the diaphragm. Bipolar electrodes, connected to an amplifier and data acquisition set-up (CED 1401/Spike2 Data Analysis Computer Interface, Cambridge Electronic Design), were inserted into both left and right hemidiaphragms to record diaphragmatic activity. After this, the cervical area of the spinal cord was reopened again for exposure to photostimulation at a wavelength of 475 nm, i.e., blue light. The light source was a portable unit capable of producing light at various wavelengths through a fiber optic cable (Model Lambda DG-4, Sutter Instrument). Diaphragmatic motor activity was recorded before, during, and after stimulation. During recording, the animals were placed on a circulating warm water blanket to maintain body temperature. The initial protocol used for photostimulation included sustained exposure (1 min) of the C3-C6 spinal cord from the light source, as well as, intermittent exposure to light at about once per second for 1 min. […] This protocol was adapted from the long-term facilitation induction protocol of 5 min normoxia followed by 5 min hypoxia (Fuller et al., 2003; Golder and Mitchell, 2005). The intermittent stimulation consisted of light exposure at 0.5 Hz, with each flash of light 1 s long.
To block NMDA receptors, 500 μl of 10 μM MK-801 (Sigma), a noncompetitive NMDA receptor antagonist, diluted in PBS, was applied to the exposed spinal cord. MK-801 was administered after 5 min of baseline recording. Recording with MK-801 continued for 5 more minutes before intermittent photostimulation and thereafter as described above.
After recording, the raw diaphragmatic EMG signal was rectified and integrated using Spike2 software. Frequency was determined by counting total breaths for 5 min before and after photostimulation. Peak amplitude and burst duration of inspiratory bursts were measured through Spike2, for at least 25 breaths before and after stimulation. Poststimulation analyses of ChR2 animals were made during regular patterned respiratory related diaphragmatic EMG activity. All values were standardized to prestimulation measures. Statistical analysis was performed using ANOVA and Tukey's post hoc analysis. All values with a p value <0.05 were considered significant. All error bars indicate SEs.

For `C[C@]12N[C@H](Cc3ccccc31)c1ccccc12` [MK-801], the “effect on light-induced change in diaphragmatic EMG activity” value (500 μl of 10 μM MK-801 in PBS on exposed C3-C6 spinal cord, ipsilateral and contralateral) is on record as “failed to elicit any kind of change in diaphragmatic EMG activity; also recorded: eliminated cycling of increasing diaphragmatic EMG activity”. Where the note is “500 μl of 10 μM MK-801 on exposed C3-C6 spinal cord”, the “animals in which intermittent photostimulation failed to elicit any change in EMG activity” value is “four of six”. The “frequency of breaths before and after stimulation” value (FIG. 4A) is “no change”. For the same compound, the “effect on photostimulation-induced increase of peak EMG amplitude during inspiratory bursts” value (FIG. 4B, brought back to control levels) is on record as “abolished”. Further, the “effect on photostimulation-induced increase in duration of EMG inspiratory bursts” value (FIG. 4C, brought back to control levels) was “attenuated”.
